The source of these data is ChEMBL document CHEMBL1773000, “Synthesis and biological activity of 22-deoxo-23-oxa analogues of saponin OSW-1” (J Med Chem, 2011).

In assay [1] the test system is CCRF-CEM. The assay can be described thus: Induction of apoptosis in human CEM cells assessed as increase in caspase-3 activity using Ac-DEVD-AMC as a substrate at 0.25 uM after 24 hrs by fluorescence microplate reader assay relative to untreated control. The format is functional.
The test system of assay [2] is CCRF-CEM. The assay can be described thus: Induction of apoptosis in human CEM cells assessed as increase in caspase-3 activity using Ac-DEVD-AMC as a substrate at 0.5 uM after 24 hrs by fluorescence microplate reader assay relative to untreated control. The format is functional.
Assay [3] concerns CCRF-CEM. The assay can be described thus: Induction of apoptosis in human CEM cells assessed as cleavage of PARP at 0.1 to 0.5 uM after 24 hrs by Western blot analysis relative to untreated control. The format is functional, cell-based. In general terms: In western blotting, separated proteins are transferred to a membrane and probed.
Assay [4] concerns CCRF-CEM. The assay can be described thus: Induction of apoptosis in human CEM cells assessed as effect on […] protein expression at 0.1 to 0.5 uM after 24 hrs by Western blot analysis relative to untreated control. The format is functional, cell-based.
Assay [5] relates to CCRF-CEM. The assay can be described thus: Induction of apoptosis in human CEM cells assessed as effect on retinoblastoma protein expression at 0.1 to 0.5 uM after 24 hrs by Western blot analysis relative to untreated control. The format is functional, cell-based.
In assay [6] the test system is CCRF-CEM. The assay can be described thus: Induction of apoptosis in human CEM cells assessed as accumulation of caspase-3 after 24 hrs by Western blot analysis relative to untreated control. The format is functional, cell-based.
Assay [7] relates to CCRF-CEM. The assay can be described thus: Induction of apoptosis in human CEM cells assessed as increase in caspase-7 activity using Ac-DEVD-AMC as a substrate at 0.25 uM after 24 hrs by fluorescence microplate reader assay relative to untreated control. The format is functional.
Assay [8] has as its system CCRF-CEM. The assay can be described thus: Induction of apoptosis in human CEM cells assessed as increase in caspase-7 activity using Ac-DEVD-AMC as a substrate at 0.5 uM after 24 hrs by fluorescence microplate reader assay relative to untreated control. The format is functional.
Assay [9] relates to CCRF-CEM. The assay can be described thus: Cytotoxicity against human CEM cells assessed as viable cells after 72 hrs by calcein AM assay. The format is functional, cell-based.
Assay [10] relates to MCF7. The assay can be described thus: Cytotoxicity against human MCF7 cells assessed as viable cells after 72 hrs by calcein AM assay. The format is functional, cell-based. The settings on record: MCF7, 72 h.
The subject of assay [11] is G-361. The assay can be described thus: Cytotoxicity against human G361 cells assessed as viable cells after 72 hrs by calcein AM assay. The format is functional, cell-based. The settings on record: G-361, 72 h.
Assay [12] relates to HeLa. The assay can be described thus: Cytotoxicity against human HeLa cells assessed as viable cells after 72 hrs by calcein AM assay. The format is functional, cell-based.
Assay [13] concerns HOS. The assay can be described thus: Cytotoxicity against human HOS cells assessed as viable cells after 72 hrs by calcein AM assay. The format is functional, cell-based.
Assay [14] relates to A549. The assay can be described thus: Cytotoxicity against human A549 cells assessed as viable cells after 72 hrs by calcein AM assay. The format is functional, cell-based. The settings on record: A549, 72 h.
Assay [15] is described as follows: Cytotoxicity against human T98 cells assessed as viable cells after 72 hrs by calcein AM assay. The format is functional, cell-based. The settings on record: T98, 72 h.
Assay [16] relates to HCT-116. The assay can be described thus: Cytotoxicity against human HCT116 assessed as viable cells after 72 hrs by calcein AM assay. The format is functional, cell-based. The settings on record: HCT-116, 72 h.
In assay [17] the test system is BJ. The assay can be described thus: Cytotoxicity against human BJ cells assessed as viable cells after 72 hrs by calcein AM assay. The format is cell-based.
In assay [18] the test system is CCRF-CEM. The assay can be described thus: Induction of cell cycle arrest in human CEM cells assessed as increase in accumulation of cells at S-phase after 24 hrs by flow cytometric analysis relative to untreated control. The format is functional, cell-based. For orientation: In flow cytometry, cells or beads pass a laser one at a time.
The subject of assay [19] is CCRF-CEM. The assay can be described thus: Induction of cell cycle arrest in human CEM cells assessed as increase in accumulation of cells at G2/M-phase after 24 hrs by flow cytometric analysis relative to untreated control. The format is functional, cell-based.
Assay [20] concerns CCRF-CEM. The assay can be described thus: Induction of cell cycle arrest in human CEM cells assessed as reduction in accumulation of cells at G0/G1-phase after 24 hrs by flow cytometric analysis relative to untreated control. The format is functional, cell-based.
Assay [21] has as its system CCRF-CEM. The assay can be described thus: Induction of apoptosis in human CEM cells assessed as increase in caspase-3 activity using Ac-DEVD-AMC as a substrate at 1 uM after 24 hrs by fluorescence microplate reader assay relative to untreated control. The format is functional.
The subject of assay [22] is CCRF-CEM. The assay can be described thus: Induction of apoptosis in human CEM cells assessed as increase in caspase-3 activity using Ac-DEVD-AMC as a substrate at 2 uM after 24 hrs by fluorescence microplate reader assay relative to untreated control. The format is functional.
Assay [23] deals with CCRF-CEM. The assay can be described thus: Induction of apoptosis in human CEM cells assessed as increase in caspase-3 activity using Ac-DEVD-AMC as a substrate at 5 uM after 24 hrs by fluorescence microplate reader assay relative to untreated control. The format is functional.
In assay [24] the test system is CCRF-CEM. The assay can be described thus: Induction of apoptosis in human CEM cells assessed as cleavage of PARP at 1 to 5 uM after 24 hrs by Western blot analysis relative to untreated control. The format is functional, cell-based.
The test system of assay [25] is CCRF-CEM. The assay can be described thus: Induction of apoptosis in human CEM cells assessed as increase in Bcl-2 protein level after 24 hrs by Western blot analysis relative to untreated control. The format is functional, cell-based.
Assay [26] has as its system CCRF-CEM. The assay can be described thus: Induction of apoptosis in human CEM cells assessed as effect on […] protein expression at 1 to 5 uM after 24 hrs by Western blot analysis relative to untreated control. The format is functional, cell-based.
In assay [27] the test system is CCRF-CEM. The assay can be described thus: Induction of apoptosis in human CEM cells assessed as effect on retinoblastoma protein expression at 1 to 5 uM after 24 hrs by Western blot analysis relative to untreated control. The format is functional, cell-based.
Assay [28] deals with CCRF-CEM. The assay can be described thus: Induction of apoptosis in human CEM cells assessed as increase in caspase-7 activity using Ac-DEVD-AMC as a substrate at 1 uM after 24 hrs by fluorescence microplate reader assay relative to untreated control. The format is functional.
The subject of assay [29] is CCRF-CEM. The assay can be described thus: Induction of apoptosis in human CEM cells assessed as increase in caspase-7 activity using Ac-DEVD-AMC as a substrate at 2 uM after 24 hrs by fluorescence microplate reader assay relative to untreated control. The format is functional.
The test system of assay [30] is CCRF-CEM. The assay can be described thus: Induction of apoptosis in human CEM cells assessed as increase in caspase-7 activity using Ac-DEVD-AMC as a substrate at 5 uM after 24 hrs by fluorescence microplate reader assay relative to untreated control. The format is functional.
Assay [31] concerns CCRF-CEM. The assay can be described thus: Induction of apoptosis in human CEM cells assessed as increase in amount of DNA at subG1-phase after 24 hrs by flow cytometric analysis relative to untreated control. The format is functional, cell-based.

Activity calls are given as the source filed them. The calls are words filed in the database; no cut-off is given here.

As a reminder, the IC50 is the midpoint of a concentration-inhibition curve. As for `C=CCCCCCCCCC(=O)OC[C@@H](C)[C@@]1(O)[C@@H](O[C@@H]2OC[C@H](O)[C@H](O[C@@H]3OC[C@@H](O)[C@H](O)[C@H]3OC(=O)c3ccc(OC)cc3)[C@H]2OC(C)=O)C[C@H]2[C@@H]3CC=C4C[C@@H](O)CC[C@]4(C)[C@H]3CC[C@@]21C`, the “fold change (FC)” value in [1], in [2], in assay [7] and in assay [8] was 2.5 each time. For the same compound, the result in assay [3] was Active. In addition, the outcome in assay [4] and in assay [5] was inactive. The Activity result in assay [6], in assay [18], in assay [19] and in assay [20] was “Dose-dependent effect” each time. In addition, the IC50 in assay [9] is 6.1 nM; in [10], 29 nM; in assay [11] it was 6.7 nM; in [12] it was 103 nM; in [13] it was 1940 nM; in [14] it was 600 nM. Besides, the IC50 in assay [15] is 7 nM; in assay [16], 2600 nM; in assay [17], 3 nM.
As for `COc1ccc(C(=O)OC[C@@H](C)[C@@]2(O)[C@@H](O[C@@H]3OC[C@H](O)[C@H](O[C@@H]4OC[C@@H](O)[C@H](O)[C@H]4OC(=O)c4ccc(OC)cc4)[C@H]3OC(C)=O)C[C@H]3[C@@H]4CC=C5C[C@@H](O)CC[C@]5(C)[C@H]4CC[C@@]32C)cc1`, the “fold change (FC)” value in [21] was found to be 2.1; in assay [22], 1.7; in assay [23], 1.8; in assay [28] it was 2.1; in [29], 1.7; in [30], 1.8. For the same compound, the outcome in [24] and in assay [31] was Active. For the same compound, the Activity result in assay [25], in assay [6], in assay [18], in assay [19] and in [20] was “Dose-dependent effect” throughout. Also, the result in assay [26] and in [27] was inactive. The IC50 in assay [9] is 57 nM; in assay [10], 410 nM; in assay [11] it was 170 nM; in assay [12], 340 nM; in assay [13] it was 5400 nM; in assay [14] it was 570 nM. Moreover, the IC50 is 55 nM in [15], 5000 nM in [16] and 39 nM in assay [17].
